We go through 19 compounds from patent US9108944B2, “Androgen receptor modulators and uses thereof” (ARAGON PHARMACEUTICALS, INC., priority 2010, dated 2015).

pIC50: −log10 of the molar value. Where only a bound is given, the exact number is not on record here.

Test [1] deals with T1, AR-VP16 (Homo sapiens, UniProt P10275).
T1 sequence (P10275 560-920 limits assumed): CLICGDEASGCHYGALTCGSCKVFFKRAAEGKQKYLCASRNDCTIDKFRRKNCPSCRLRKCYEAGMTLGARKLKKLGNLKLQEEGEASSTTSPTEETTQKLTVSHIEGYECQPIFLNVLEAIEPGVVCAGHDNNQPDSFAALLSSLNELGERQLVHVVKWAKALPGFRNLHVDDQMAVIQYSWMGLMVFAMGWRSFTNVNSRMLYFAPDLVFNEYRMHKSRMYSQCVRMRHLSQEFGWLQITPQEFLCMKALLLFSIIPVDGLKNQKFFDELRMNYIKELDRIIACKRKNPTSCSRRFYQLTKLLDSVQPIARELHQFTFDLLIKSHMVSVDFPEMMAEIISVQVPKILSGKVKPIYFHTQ
Nature of the test: AR-VP16 DNA Binding Assay, antagonist mode (HepG2 cells, 0.1 nM R1881). The format is cell-based. Summed up:
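Transfected HepG2 cells expressing AR-VP16 received serially diluted compound in charcoal-stripped-serum RPMI the day after transfection, with 0.1 nM R1881 (final) added only for antagonist testing. After 48 h, cells were lysed for measurement.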

Test [2] concerns the target T1, AR-VP16. Nature of the test: AR-VP16 DNA Binding Assay, agonist mode (HepG2 cells). The settings on record: Emax >20x DMSO control = agonist. The format is cell-based.

`Cc1cc(N2C(=O)C3(CCC3)N(c3ccc4c(c3)CNC4=O)C2=S)cnc1C#N` [Compound 111, 3-Methyl-5-(8-oxo-5-(1-oxoisoindolin-5-yl)-6-thioxo-5,7-diazaspiro[3.4]octan-7-yl)picolinonitrile] showed a pIC50 at AR-VP16 [1] below 6.00. Moreover, the “ARVP16 DNA Binding Assay (Agonist mode): Agonist?” value (“ARVP16 DNA Binding Assay” below) at AR-VP16 [2] is on record as “No (Agonist defined as a compound whose Emax in the ARVP16 DNA Binding Assay (Agonist mode) is >20x DMSO control)”.
The corresponding values for `CNC(=O)c1ccc(N2C(=S)N(c3cnc(C#N)c(C(F)F)c3)C(=O)C23CCC3)cc1F` [Compound 113, 4-(7-(6-Cyano-5-(difluoromethyl)pyridin-3-yl)-8-oxo-6-thioxo-5,7-diazaspiro[3.4]octan-5-yl)-2-fluoro-N-methylbenzamide] are above 6.00 and “No (Agonist defined as a compound whose Emax in the ARVP16 DNA Binding Assay (Agonist mode) is >20x DMSO control)”.
With `N#Cc1ncc(N2C(=O)C3(CCC3)N(c3ccc(C4CCOCC4)cc3)C2=S)cc1C(F)(F)F` [Compound 115, 5-(8-Oxo-5-(4-(tetrahydro-2H-pyran-4-yl)phenyl)-6-thioxo-5,7-diazaspiro[3.4]octan-7-yl)-3-(trifluoromethyl)picolinonitrile], the pIC50 at AR-VP16 [1] was above 6.00. The “ARVP16 DNA Binding Assay” value on AR-VP16 [2] is “No (Agonist defined as a compound whose Emax in the ARVP16 DNA Binding Assay (Agonist mode) is >20x DMSO control)”.
For `Cc1cc(N2C(=O)C3(CCC3)N(c3ccc(-c4ccco4)cc3)C2=S)cnc1C#N` [Compound 116, 5-(5-(4-(Furan-2-yl)phenyl)-8-oxo-6-thioxo-5,7-diazaspiro[3.4]octan-7-yl)-3-methylpicolinonitrile] the same measures were above 6.00 and “No (Agonist defined as a compound whose Emax in the ARVP16 DNA Binding Assay (Agonist mode) is >20x DMSO control)”.
The corresponding values for `O=C1N(c2ccc3nnc(C(F)(F)F)n3n2)C(=S)N(c2ccc(O)c(F)c2)C12CCC2` [Compound 117, 5-(3-Fluoro-4-hydroxyphenyl)-6-thioxo-7-(3-(trifluoromethyl)-[1,2,4]triazolo[4,3-b]pyridazin-6-yl)-5,7-diazaspiro[3.4]octan-8-one] are below 6.00 and “No (Agonist defined as a compound whose Emax in the ARVP16 DNA Binding Assay (Agonist mode) is >20x DMSO control)”.
Consider `CN(C)S(=O)(=O)c1ccc(N2C(=S)N(c3cnc(C#N)c(C(F)(F)F)c3)C(=O)C23CCC3)cc1` [Compound 121, 4-(7-(6-Cyano-5-(trifluoromethyl)pyridin-3-yl)-8-oxo-6-thioxo-5,7-diazaspiro[3.4]octan-5-yl)-N,N-dimethylbenzenesulfonamide], for which the pIC50 at AR-VP16 [1] was below 6.00. Besides, the “ARVP16 DNA Binding Assay” value on AR-VP16 [2] was “No (Agonist defined as a compound whose Emax in the ARVP16 DNA Binding Assay (Agonist mode) is >20x DMSO control)”.
The corresponding values for `COC(=O)CCCc1ccc(N2C(=S)N(c3cnc(C#N)c(C(F)(F)F)c3)C(=O)C23CCC3)cc1` [Compound 122, Methyl 4-(4-(7-(6-cyano-5-(trifluoromethyl)pyridin-3-yl)-8-oxo-6-thioxo-5,7-diazaspiro[3.4]octan-5-yl)phenyl)butanoate] are below 6.00 and “No (Agonist defined as a compound whose Emax in the ARVP16 DNA Binding Assay (Agonist mode) is >20x DMSO control)”.
For `N#Cc1ncc(N2C(=O)C3(CCC3)N(c3ccc(F)c(O)c3)C2=S)cc1C(F)(F)F` [Compound 123, 5-(5-(4-Fluoro-3-hydroxyphenyl)-8-oxo-6-thioxo-5,7-diazaspiro[3.4]octan-7-yl)-3-(trifluoromethyl)picolinonitrile] the same measures were below 6.00 and “No (Agonist defined as a compound whose Emax in the ARVP16 DNA Binding Assay (Agonist mode) is >20x DMSO control)”.
The corresponding values for `N#Cc1ncc(N2C(=O)C3(CCC3)N(c3ccc4ncoc4c3)C2=S)cc1C(F)(F)F` [Compound 125, 5-(5-(Benzo[d]oxazol-6-yl)-8-oxo-6-thioxo-5,7-diazaspiro[3.4]octan-7-yl)-3-(trifluoromethyl)picolinonitrile] are above 6.00 and “No (Agonist defined as a compound whose Emax in the ARVP16 DNA Binding Assay (Agonist mode) is >20x DMSO control)”.
As to `Cn1nccc1CCOc1ccc(N2C(=S)N(c3cnc(C#N)c(C(F)(F)F)c3)C(=O)C23CCC3)cc1F` [Compound 126, 5-(5-(3-Fluoro-4-(2-(1-methyl-1H-pyrazol-5-yl)ethoxy)phenyl)-8-oxo-6-thioxo-5,7-diazaspiro[3.4]octan-7-yl)-3-(trifluoromethyl)picolinonitrile], at AR-VP16 [1], the negative logarithm of the IC50 (pIC50) is above 6.00. In addition, the “ARVP16 DNA Binding Assay” value at AR-VP16 [2] is reported as “Yes (Agonist defined as a compound whose Emax in the ARVP16 DNA Binding Assay (Agonist mode) is >20x DMSO control)”.
For `N#Cc1ncc(N2C(=O)C3(CCC3)N(c3ccc(OCc4ccccc4)c(F)c3)C2=S)cc1C(F)(F)F` [Compound 128, 5-(5-(4-(Benzyloxy)-3-fluorophenyl)-8-oxo-6-thioxo-5,7-diazaspiro[3.4]octan-7-yl)-3-(trifluoromethyl)picolinonitrile] the same measures were above 6.00 and “No (Agonist defined as a compound whose Emax in the ARVP16 DNA Binding Assay (Agonist mode) is >20x DMSO control)”.
The corresponding values for `N#Cc1ncc(N2C(=O)C3(CCC3)N(c3ccc(OCCc4ccccn4)c(F)c3)C2=S)cc1C(F)(F)F` [Compound 130, 5-(5-(3-Fluoro-4-(2-(pyridin-2-yl)ethoxy)phenyl)-8-oxo-6-thioxo-5,7-diazaspiro[3.4]octan-7-yl)-3-(trifluoromethyl)picolinonitrile] are above 6.00 and “No (Agonist defined as a compound whose Emax in the ARVP16 DNA Binding Assay (Agonist mode) is >20x DMSO control)”.
Compound `COCCOc1ccc(N2C(=S)N(c3cnc(C#N)c(C(F)(F)F)c3)C(=O)C23CCC3)cc1F` [Compound 131, 5-(5-(3-Fluoro-4-(2-methoxyethoxy)phenyl)-8-oxo-6-thioxo-5,7-diazaspiro[3.4]octan-7-yl)-3-(trifluoromethyl)picolinonitrile] had a pIC50 at AR-VP16 [1] above 6.00. Also, the “ARVP16 DNA Binding Assay” value at AR-VP16 [2] is given as “No (Agonist defined as a compound whose Emax in the ARVP16 DNA Binding Assay (Agonist mode) is >20x DMSO control)”.
For the compound `CCOC(=O)COc1ccc(N2C(=S)N(c3cnc(C#N)c(C(F)(F)F)c3)C(=O)C23CCC3)cc1F` [Compound 132, Ethyl 2-(4-(7-(6-cyano-5-(trifluoromethyl)pyridin-3-yl)-8-oxo-6-thioxo-5,7-diazaspiro[3.4]octan-5-yl)-2-fluorophenoxy)acetate], the pIC50 on AR-VP16 [1] is below 6.00. Also, at AR-VP16 [2], the “ARVP16 DNA Binding Assay” value was “No (Agonist defined as a compound whose Emax in the ARVP16 DNA Binding Assay (Agonist mode) is >20x DMSO control)”.
The corresponding values for `COCCCCOc1ccc(N2C(=S)N(c3cnc(C#N)c(C(F)(F)F)c3)C(=O)C23CCC3)cc1F` [Compound 133, 5-(5-(3-Fluoro-4-(4-methoxybutoxy)phenyl)-8-oxo-6-thioxo-5,7-diazaspiro[3.4]octan-7-yl)-3-(trifluoromethyl)picolinonitrile] are above 6.00 and “No (Agonist defined as a compound whose Emax in the ARVP16 DNA Binding Assay (Agonist mode) is >20x DMSO control)”.
Compound `N#Cc1ncc(N2C(=O)C3(CCC3)N(c3ccc(OCCCCOCc4ccccc4)c(F)c3)C2=S)cc1C(F)(F)F` [Compound 136, 5-(5-(4-(4-(Benzyloxy)butoxy)-3-fluorophenyl)-8-oxo-6-thioxo-5,7-diazaspiro[3.4]octan-7-yl)-3-(trifluoromethyl)picolinonitrile] showed a pIC50 at AR-VP16 [1] above 6.00. Further, the “ARVP16 DNA Binding Assay” value on AR-VP16 [2] is recorded as “No (Agonist defined as a compound whose Emax in the ARVP16 DNA Binding Assay (Agonist mode) is >20x DMSO control)”.
The corresponding values for `N#Cc1ncc(N2C(=O)C3(CCC3)N(c3ccc(OCCCc4ccccc4)c(F)c3)C2=S)cc1C(F)(F)F` [Compound 138, 5-(5-(3-Fluoro-4-(3-phenylpropoxy)phenyl)-8-oxo-6-thioxo-5,7-diazaspiro[3.4]octan-7-yl)-3-(trifluoromethyl)picolinonitrile] are below 6.00 and “No (Agonist defined as a compound whose Emax in the ARVP16 DNA Binding Assay (Agonist mode) is >20x DMSO control)”.
For `N#Cc1ncc(N2C(=O)C3(CCC3)N(c3ccc(OCCc4cccc5ccccc45)c(F)c3)C2=S)cc1C(F)(F)F` [Compound 140, 5-(5-(3-Fluoro-4-(2-(naphthalen-1-yl)ethoxy)phenyl)-8-oxo-6-thioxo-5,7-diazaspiro[3.4]octan-7-yl)-3-(trifluoromethyl)picolinonitrile] the same measures were below 6.00 and “No (Agonist defined as a compound whose Emax in the ARVP16 DNA Binding Assay (Agonist mode) is >20x DMSO control)”.
For `N#Cc1ncc(N2C(=O)C3(CCC3)N(c3ccc(OCCc4ccc5ccccc5c4)c(F)c3)C2=S)cc1C(F)(F)F` [Compound 141, 5-(5-(3-Fluoro-4-(2-(naphthalen-2-yl)ethoxy)phenyl)-8-oxo-6-thioxo-5,7-diazaspiro[3.4]octan-7-yl)-3-(trifluoromethyl)picolinonitrile] the same measures were below 6.00 and “Yes (Agonist defined as a compound whose Emax in the ARVP16 DNA Binding Assay (Agonist mode) is >20x DMSO control)”.
